Publication PMC9933482 (ACS Omega, 2023)
Values after ≈ are worked out from the molar mass of the structure shown. “Also recorded” adds a separate entry of the source.

Key:
MCF-7 cell line = assay: MTT cytotoxicity assay, MCF-7; type: cell-based, human; conditions: for IC50: Homo sapiens, MCF7, 24 h, read-out: IC50 in μg/mL MCF-7, MTT, 24 h treatment
HePG-2 cell line = assay: MTT cytotoxicity assay, HePG-2; type: cell-based, human; conditions: for IC50: Homo sapiens, HepG2, 24 h, read-out: IC50 in μg/mL HePG-2, MTT, 24 h treatment
[1] = system: human lung fibroblast cell line WI38; assay: MTT cell viability, normal lung fibroblast WI38; type: cell-based; conditions: WI-38, read-out: IC50 in μg/mL WI38
[2] = biological target: human carbonic anhydrase IX (hCAIX) (Homo sapiens, UniProt Q16790); assay: biochemical
[3] = biological target: recombinant human carbonic anhydrase XII (hCAXII) (Homo sapiens, UniProt O43570); assay: hCAXII enzyme inhibition assay; type: biochemical
recombinant human carbonic anhydrase XII (hCAXII), sequence (O43570 25-291): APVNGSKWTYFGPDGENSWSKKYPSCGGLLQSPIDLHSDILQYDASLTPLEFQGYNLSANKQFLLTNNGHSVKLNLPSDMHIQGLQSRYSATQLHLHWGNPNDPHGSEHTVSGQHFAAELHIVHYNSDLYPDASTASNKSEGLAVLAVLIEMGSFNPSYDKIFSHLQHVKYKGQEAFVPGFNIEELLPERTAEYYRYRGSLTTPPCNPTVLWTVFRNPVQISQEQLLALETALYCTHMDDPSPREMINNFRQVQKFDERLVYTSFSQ

SMILES	IC50 (MCF-7 cell line)	IC50 (HePG-2 cell line)	IC50 [1]	anticancer/cytotoxic activity in words, MCF-7 (MCF-7 cell line)	anticancer/cytotoxic activity in words, HePG-2 (HePG-2 cell line)	IC50 in μg/mL HePG-2 (HePG-2 cell line; MTT, 24 h treatment)	IC50 [2]	IC50 [3]	IC50 in μg/mL MCF-7 (MCF-7 cell line; MTT, 24 h treatment)
COc1ccc(-c2nn(-c3ccccc3)cc2C2c3sc(=O)[nH]c3SCC2C#N)cc1 (centres unmarked) [7c, 7-(3-(4-Methoxyphenyl)-1-phenyl-1H-pyrazol-4-yl)-2-oxo-3,5,6,7-tetra-hydro-2H-thiopyrano[2,3-d]thiazole-6-carbonitrile]	29.4 ± 1.1 µg/mL (≈ 65.9 µM)	24.1 ± 2.9 µg/mL (≈ 54 µM)	51.9 ± 3.4 µg/mL (≈ 116 µM)	–	–	–	–	–	–
O=C1NC(=S)C(=Cc2cn(-c3ccccc3)nc2-c2ccccc2)S1 [compound 3a, 5-[(1,3-Diphenyl-1H-pyrazol-4-yl)methylene]-4-thioxo-2-thiazolidinone]	52.1 ± 3.1 µg/mL (≈ 143 µM)	65.8 ± 3.3 µg/mL (≈ 181 µM)	28.2 ± 2.3 µg/mL (≈ 77.6 µM)	weak activity	weak activity	–	–	–	–
Cc1ccc(-c2nn(-c3ccccc3)cc2C=C2SC(=O)NC2=S)cc1 [compound 3b, 5-[(3-(4-Methylphenyl)-1-phenyl-1H-pyrazol-4-yl)methylene]-4-thioxo-2-thiazolidinone]	56.3 ± 3.4 µg/mL (≈ 149 µM)	62.2 ± 3.2 µg/mL (≈ 165 µM)	25.3 ± 2.1 µg/mL (≈ 66.9 µM)	weak activity	weak activity	–	–	–	–
COc1ccc(-c2nn(-c3ccccc3)cc2C=C2SC(=O)NC2=S)cc1 [compound 3c, 5-[(3-(4-Methoxyphenyl)-1-phenyl-1H-pyrazol-4-yl)methylene]-4-thioxo-2-thiazolidinone]	37.6 ± 3.4 µg/mL (≈ 95.5 µM)	31.2 ± 2.6 µg/mL (≈ 79.3 µM)	64.5 ± 3.8 µg/mL (≈ 164 µM)	moderate activity	moderate activity	–	–	–	–
O=C1NC(=S)C(=Cc2cn(-c3ccccc3)nc2-c2ccc(Cl)cc2)S1 [compound 3d, 5-[(3-(4-Chlorophenyl)-1-phenyl-1H-pyrazol-4-yl)methylene]-4-thioxo-2-thiazolidinone]	30.8 ± 2.2 µg/mL (≈ 77.5 µM)	38.2 ± 2.7 µg/mL (≈ 96 µM)	71.2 ± 4.2 µg/mL (≈ 179 µM)	moderate activity	moderate activity	–	–	–	–
O=C1NC(=S)C(=Cc2cn(-c3ccccc3)nc2-c2ccc(Br)cc2)S1 [compound 3e, 5-[(3-(4-Bromophenyl)-1-phenyl-1H-pyrazol-4-yl)methylene]-4-thioxo-2-thiazolidinone]	11.2 ± 1.5 µg/mL (≈ 25.2 µM)	7.83 ± 1.5 µg/mL (≈ 17.7 µM)	41.5 ± 2.9 µg/mL (≈ 93.8 µM)	most potent cytotoxic agent in this series; also recorded: strong anticancer activity	most potent cytotoxic agent in this series; also recorded: strong cytotoxic activity	10.66 ± 1.0 µg/mL (≈ 24.1 µM)	349 ± 11 nM	556 ± 16 nM	–
O=C1C2Sc3[nH]c(=O)sc3C(c3cn(-c4ccccc4)nc3-c3ccccc3)C2C(=O)N1c1ccccc1 (centres unmarked) [compound 5a, 8-(1,3-Diphenyl-1H-pyrazol-4-yl)-6-phenyl-7a,8-dihydropyrrolo[3′,4′:5,6]-thiopyrano[2,3-d]thiazole-2,5,7(3H,4aH,6H)-trione]	30.3 ± 0.4 µg/mL (≈ 56.5 µM)	38.4 ± 2.1 µg/mL (≈ 71.6 µM)	65.7 ± 1.1 µg/mL (≈ 122 µM)	–	–	–	–	–	–
Cc1ccc(-c2nn(-c3ccccc3)cc2C2c3sc(=O)[nH]c3SC3C(=O)N(c4ccccc4)C(=O)C32)cc1 (centres unmarked) [compound 5d, 8-(3-(4-Methylphenyl)-1-phenyl-1H-pyrazol-4-yl)-6-phenyl-7a,8-dihydro-pyrrolo[3′,4′:5,6]-thiopyrano[2,3-d]thiazole-2,5,7(3H,4aH,6H)-trione]	25.4 ± 2.1 µg/mL (≈ 46.1 µM)	21.3 ± 1.8 µg/mL (≈ 38.7 µM)	49.9 ± 3.4 µg/mL (≈ 90.5 µM)	good cytotoxic effect	good cytotoxic effect	–	336 ± 16 nM	604 ± 33 nM	25.95 ± 2.8 µg/mL (≈ 47.1 µM)
COc1ccc(-c2nn(-c3ccccc3)cc2C2c3sc(=O)[nH]c3SC3C(=O)N(c4ccccc4)C(=O)C32)cc1 (centres unmarked) [compound 5e, 8-(3-(4-Methoxyphenyl)-1-phenyl-1H-pyrazol-4-yl)-6-phenyl-7a,8-dihydro-pyrrolo-[3′,4′:5,6]thiopyrano[2,3-d]thiazole-2,5,7(3H,4aH,6H)-trione]	35.7 ± 72 µg/mL (≈ 63 µM)	30.7 ± 0.3 µg/mL (≈ 54.2 µM)	51.7 ± 3.7 µg/mL (≈ 91.2 µM)	–	–	–	–	–	–
O=C1C2Sc3[nH]c(=O)sc3C(c3cn(-c4ccccc4)nc3-c3ccc(Cl)cc3)C2C(=O)N1c1ccccc1 (centres unmarked) [compound 5f, 8-(3-(4-Chlorophenyl)-1-phenyl-1H-pyrazol-4-yl)-6-phenyl-7a,8-dihydro-pyrrolo[3′,4′:5,6]-thiopyrano[2,3-d]thiazole-2,5,7(3H,4aH,6H)-trione]	25.4 ± 2.1 µg/mL (≈ 44.5 µM)	29 ± 2.1 µg/mL (≈ 50.8 µM)	43 ± 3.1 µg/mL (≈ 75.3 µM)	almost moderate activity	almost moderate activity	–	–	–	–
O=C1C2Sc3[nH]c(=O)sc3C(c3cn(-c4ccccc4)nc3-c3ccc(Br)cc3)C2C(=O)N1c1ccccc1 (centres unmarked) [compound 5g, 8-(3-(4-Bromophenyl)-1-phenyl-1H-pyrazol-4-yl)-6-phenyl-7a,8-dihydro-pyrrolo[3′,4′:5,6]-thiopyrano[2,3-d]thiazole-2,5,7(3H,4aH,6H)-trione]	42.9 ± 2.7 µg/mL (≈ 69.7 µM)	45 ± 3 µg/mL (≈ 73 µM)	24.9 ± 2 µg/mL (≈ 40.4 µM)	weakly active	weakly active	–	–	–	–
N#CC1CSc2[nH]c(=O)sc2C1c1cn(-c2ccccc2)nc1-c1ccccc1 (centres unmarked) [compound 7a, 7-(1,3-Diphenyl-1H-pyrazol-4-yl)-2-oxo-3,5,6,7-tetrahydro-2H-thiopyrano-[2,3-d]thiazole-6-carbonitrile]	23.8 ± 1.9 µg/mL (≈ 57 µM)	26.8 ± 3.3 µg/mL (≈ 64.4 µM)	54.6 ± 3.5 µg/mL (≈ 131 µM)	–	–	–	–	–	–
Cc1ccc(-c2nn(-c3ccccc3)cc2C2c3sc(=O)[nH]c3SCC2C#N)cc1 (centres unmarked) [compound 7b, 7-(3-(4-Methylphenyl)-1-phenyl-1H-pyrazol-4-yl)-2-oxo-3,5,6,7-tetra-hydro-2H-thiopyrano-[2,3-d]thiazole-6-carbonitrile]	35 ± 2.3 µg/mL (≈ 81.4 µM)	30.4 ± 1.1 µg/mL (≈ 70.7 µM)	41.4 ± 1.7 µg/mL (≈ 96 µM)	–	–	–	–	–	–
N#CC1CSc2[nH]c(=O)sc2C1c1cn(-c2ccccc2)nc1-c1ccc(Cl)cc1 (centres unmarked) [compound 7d, 7-(3-(4-Chlorophenyl)-1-phenyl-1H-pyrazol-4-yl)-2-oxo-3,5,6,7-tetra-hydro-2H-thiopyrano[2,3-d]thiazole-6-carbonitrile]	67.3 ± 3.7 µg/mL (≈ 149 µM)	73 ± 4.3 µg/mL (≈ 162 µM)	39.5 ± 1.7 µg/mL (≈ 87.6 µM)	weak activity	weak activity	–	–	–	–
CCOC(=O)C1CSc2[nH]c(=O)sc2C1c1cn(-c2ccccc2)nc1-c1ccccc1 (centres unmarked) [compound 7f, Ethyl 7-(1,3-Diphenyl-1H-pyrazol-4-yl)-2-oxo-3,5,6,7-tetrahydro-2H-thiopyrano[2,3-d]thiazole-6-carboxylate]	15.9 ± 2.3 µg/mL (≈ 34.3 µM)	13.4 ± 1.2 µg/mL (≈ 28.8 µM)	44.5 ± 4.5 µg/mL (≈ 96 µM)	moderate anticancer activity	moderate anticancer activity	–	928 ± 45 nM	1050 ± 57 nM	–
CCOC(=O)C1CSc2[nH]c(=O)sc2C1c1cn(-c2ccccc2)nc1-c1ccc(C)cc1 (centres unmarked) [compound 7g, Ethyl 7-(3-(4-Methylphenyl)-1-phenyl-1H-pyrazol-4-yl)-2-oxo-3,5,6,7-tetrahydro-2H-thiopyrano[2,3-d]thiazole-6-carboxylate]	12.3 ± 2.4 µg/mL (≈ 25.8 µM)	11.9 ± 2.7 µg/mL (≈ 24.9 µM)	30.3 ± 1.7 µg/mL (≈ 63.5 µM)	strong cytotoxicity	strong cytotoxicity	–	390 ± 19 nM	566 ± 31 nM	–
CCOC(=O)C1CSc2[nH]c(=O)sc2C1c1cn(-c2ccccc2)nc1-c1ccc(OC)cc1 (centres unmarked) [compound 7h, Ethyl 7-(3-(4-Methoxyphenyl)-1-phenyl-1H-pyrazol-4-yl)-2-oxo-3,5,6,7-tetrahydro-2H-thiopyrano[2,3-d]thiazole-6-carboxylate]	11.4 ± 1.5 µg/mL (≈ 23 µM)	12.2 ± 1.1 µg/mL (≈ 24.7 µM)	25.3 ± 2.2 µg/mL (≈ 51.3 µM)	strong cytotoxicity	strong cytotoxicity	–	133 ± 6 nM	409 ± 22 nM	–
CCOC(=O)C1CSc2[nH]c(=O)sc2C1c1cn(-c2ccccc2)nc1-c1ccc(Br)cc1 (centres unmarked) [compound 7j, Ethyl 7-(3-(4-Bromophenyl)-1-phenyl-1H-pyrazol-4-yl)-2-oxo-3,5,6,7-tetra-hydro-2H-thiopyrano[2,3-d]thiazole-6-carboxylate]	11.8 ± 4 µg/mL (≈ 21.8 µM)	10.3 ± 4.8 µg/mL (≈ 18.9 µM)	33.8 ± 2.5 µg/mL (≈ 62.2 µM)	strong cytotoxicity	strong cytotoxicity	–	239 ± 30 nM	589 ± 30 nM	–
COc1cccc2c1C(=O)c1c(O)c3c(c(O)c1C2=O)C[C@@](O)(C(=O)CO)C[C@@H]3O[C@H]1C[C@H](N)[C@H](O)[C@H](C)O1 [doxorubicin, reference compound]	–	–	8.87 ± 0.6 µg/mL (≈ 16.3 µM)	–	–	–	–	–	–
